Peptide text beside a SMILES is read from it.
System: 3T3-L1 Adipocytes
Assay: Free fatty acid levels in cultured mouse 3T3-L1 adipocytes, isoproterenol stimulated (Example 2)
Format: cell-based
Conditions: test peptides 25 μM; isoproterenol 1 nM
Experimental: Mouse 3T3-L1 cells were seeded at a density between 1,000-20,000 cells per well on 96-well, 48-well, or 24-well plates in Pre-adipocyte Medium (Zen-Bio, Durham, N.C.) and grown to confluence at 37° C. in a humidified atmosphere of 5% CO2/95% air. Two days after confluence, cells were placed in Adipocyte Differentiation Medium (Zen-Bio, Durham, N.C.) and cultured for three additional days at 37° C. in a humidified atmosphere of 5% CO2/95% air. The culture media was then replaced with Adipocyte Maintenance Medium (Zen-Bio) and the cells were maintained for an additional 9-14 days at 37° C. in a humidified atmosphere of 5% CO2/95% air with partial medium replacement every other day. Following 12-17 days of differentiation, test peptides were added at a final concentration of 25 μM and incubated for 18-20 hours in Adipocyte Maintenance Medium at 37° C. in a humidified atmosphere of 5% CO2/95%. After 18-20 hours, the media was exchanged with fresh Adipocyte Maintenance Medium containing test peptides and incubated for 1 h at 37° C. in a humidified atmosphere of 5% CO2/95%. After 1 h media was exchanged with Assay Buffer (Zen-Bio) containing isoproterenol (1 nM) (added to all samples except untreated controls) and the test peptides. Cells were incubated for a further 3 hours at 37° C. in a humidified atmosphere of 5% CO2/95%. Free fatty acid concentrations in the media were determined using a Free Fatty Acid Assay Kit (Zen-Bio) according to the manufacturer's instructions using a plate reader (540 nm).
Absorbance values were corrected for untreated background and expressed relative to isoproterenol treated cells. Treatment with isoproterenol (1 nM) alone was used as the free fatty acid level stimulatory control. The relative standard deviation of the isoproterenol control was <10%. […] Free fatty acid levels for insulin (100 nM) treatment were <5% of the isoproterenol control value.

CC[C@H](C)[C@H](NC(=O)[C@H](Cc1ccc(O)cc1)NC(=O)CNC(=O)[C@H](CCSC)NC(=O)[C@H](CCC(=O)O)NC(=O)[C@H](CCC(N)=O)NC(=O)[C@@H](C)NC(=O)[C@H](CCCNC(=N)N)NC(=O)[C@H](CCSC)NC(C)=O)C(=O)N[C@@H](Cc1ccccc1)C(=O)N[C@@H](Cc1ccc(O)cc1)C(=O)N1CCC[C@H]1C(=O)N[C@@H](CCCNC(=N)N)C(=O)N[C@@H](CCCCN)C(=O)N[C@@H](CC(C)C)C(=O)N[C@@H](CCCNC(=N)N)C(N)=O [compound 154] (HELM PEPTIDE1{[ac].M.R.[dA].Q.E.M.G.Y.I.F.Y.P.R.K.L.R.[am]}$$$$V2.0)
Free Fatty Acid Levels in 3T3-L1 Adipocytes Expressed as a Percent of Isoproterenol Control: Percent of Control Value: 95.7%

H-MGYIFYPRKLR-OH [compound 42]
Free Fatty Acid Levels in 3T3-L1 Adipocytes Expressed as a Percent of Isoproterenol Control: Percent of Control Value: 115.2%

H-MGWQEMGYIFYPRKLR-OH [compound 77]
Free Fatty Acid Levels in 3T3-L1 Adipocytes Expressed as a Percent of Isoproterenol Control: Percent of Control Value: 112.5%

Ac-MRWQEEGYIFYPRKLR-NH2 [compound 187]
Free Fatty Acid Levels in 3T3-L1 Adipocytes Expressed as a Percent of Isoproterenol Control: Percent of Control Value: 98.9%

CC[C@H](C)[C@H](NC(=O)[C@H](Cc1ccc(O)cc1)NC(=O)CNC(=O)[C@H](CCSC)NC(=O)[C@H](CCC(=O)O)NC(=O)[C@H](CCC(N)=O)NC(=O)[C@H](Cc1c[nH]c2ccccc12)NC(=O)[C@H](CCCNC(=N)N)NC(=O)[C@@H](C)N)C(=O)N[C@@H](Cc1ccccc1)C(=O)N[C@@H](Cc1ccc(O)cc1)C(=O)N1CCC[C@H]1C(=O)N[C@@H](CCCNC(=N)N)C(=O)N[C@@H](CCCCN)C(=O)N[C@@H](CC(C)C)C(=O)N[C@@H](CCCNC(=N)N)C(=O)O [compound 136] (HELM PEPTIDE1{[dA].R.W.Q.E.M.G.Y.I.F.Y.P.R.K.L.R}$$$$V2.0)
Free Fatty Acid Levels in 3T3-L1 Adipocytes Expressed as a Percent of Isoproterenol Control: Percent of Control Value: 44.2%

CC[C@H](C)[C@H](NC(=O)[C@H](Cc1ccc(O)cc1)NC(=O)CNC(=O)[C@H](CCSC)NC(=O)[C@H](CCC(=O)O)NC(=O)[C@H](CCC(N)=O)NC(=O)[C@H](Cc1c[nH]c2ccccc12)NC(=O)[C@H](CCCNC(=N)N)NC(=O)[C@H](CCSC)NC(C)=O)C(=O)N[C@@H](Cc1ccccc1)C(=O)N[C@@H](Cc1ccc(O)cc1)C(=O)N1CCC[C@H]1C(=O)N[C@@H](CCCNC(=N)N)C(=O)N[C@@H](CCCCN)C(=O)NC(CC)(CC)C(=O)N[C@@H](CCCNC(=N)N)C(N)=O [compound 201] (HELM PEPTIDE1{[ac].M.R.W.Q.E.M.G.Y.I.F.Y.P.R.K.[CCC(CC)(N[*:1])C(=O)[*:2]].R.[am]}$$$$V2.0)
Free Fatty Acid Levels in 3T3-L1 Adipocytes Expressed as a Percent of Isoproterenol Control: Percent of Control Value: 92.8%

CC[C@H](C)[C@H](NC(=O)[C@H](Cc1ccc(O)cc1)NC(=O)CNC(=O)[C@H](CCSC)NC(=O)[C@H](CCC(=O)O)NC(=O)[C@H](CCC(N)=O)NC(=O)[C@H](Cc1c[nH]c2ccccc12)NC(=O)[C@H](CCCNC(=N)N)NC(=O)[C@@H](N)CCSC)C(=O)N[C@@H](Cc1ccccc1)C(=O)N[C@@H](Cc1ccc(O)cc1)C(=O)N[C@H](C)C(=O)N[C@@H](CCCNC(=N)N)C(=O)N[C@@H](CCCCN)C(=O)N[C@@H](CC(C)C)C(=O)N[C@@H](CCCNC(=N)N)C(=O)O [compound 147] (HELM PEPTIDE1{M.R.W.Q.E.M.G.Y.I.F.Y.[dA].R.K.L.R}$$$$V2.0)
Free Fatty Acid Levels in 3T3-L1 Adipocytes Expressed as a Percent of Isoproterenol Control: Percent of Control Value: 60.9%

Ac-MRWNEMGYIFYPRKLR-NH2 [compound 133]
Free Fatty Acid Levels in 3T3-L1 Adipocytes Expressed as a Percent of Isoproterenol Control: Percent of Control Value: 87.5%

Ac-ARWQEMGYIFYPRKLR-NH2 [compound 22]
Free Fatty Acid Levels in 3T3-L1 Adipocytes Expressed as a Percent of Isoproterenol Control: Percent of Control Value: 78.7%

CC[C@H](C)[C@H](NC(=O)[C@H](Cc1ccc(O)cc1)NC(=O)CNC(=O)[C@H](CCSC)NC(=O)[C@@H](C)NC(=O)[C@H](CCC(N)=O)NC(=O)[C@H](Cc1c[nH]c2ccccc12)NC(=O)[C@H](CCCNC(=N)N)NC(=O)[C@@H](N)CCSC)C(=O)N[C@@H](Cc1ccccc1)C(=O)N[C@@H](Cc1ccc(O)cc1)C(=O)N1CCC[C@H]1C(=O)N[C@@H](CCCNC(=N)N)C(=O)N[C@@H](CCCCN)C(=O)N[C@@H](CC(C)C)C(=O)N[C@@H](CCCNC(=N)N)C(=O)O [compound 140] (HELM PEPTIDE1{M.R.W.Q.[dA].M.G.Y.I.F.Y.P.R.K.L.R}$$$$V2.0)
Free Fatty Acid Levels in 3T3-L1 Adipocytes Expressed as a Percent of Isoproterenol Control: Percent of Control Value: 60.8%

Ac-MAWQEMGYIFYPRKLR-NH2 [compound 23]
Free Fatty Acid Levels in 3T3-L1 Adipocytes Expressed as a Percent of Isoproterenol Control: Percent of Control Value: 74.7%

CC[C@H](C)[C@@H]1NC(=O)[C@H](Cc2ccc(O)cc2)NC(=O)CNC(=O)[C@@H](NC(=O)[C@H](CCC(=O)O)NC(=O)[C@H](CCC(N)=O)NC(=O)[C@H](Cc2c[nH]c3ccccc23)NC(=O)[C@H](CCCNC(=N)N)NC(=O)[C@@H](N)CCSC)CCC(=O)NCCCC[C@@H](C(=O)N[C@@H](CCCNC(=N)N)C(=O)N[C@@H](CCCCN)C(=O)N[C@@H](CC(C)C)C(=O)N[C@@H](CCCNC(=N)N)C(=O)O)NC(=O)[C@H](Cc2ccc(O)cc2)NC(=O)[C@H](Cc2ccccc2)NC1=O [compound 221] (HELM PEPTIDE1{M.R.W.Q.E.E.G.Y.I.F.Y.K.R.K.L.R}$PEPTIDE1,PEPTIDE1,6:R3-12:R3$$$V2.0)
Free Fatty Acid Levels in 3T3-L1 Adipocytes Expressed as a Percent of Isoproterenol Control: Percent of Control Value: 25.5%

Ac-MRWQEMGYIFYPRKL-NH2 [compound 59]
Free Fatty Acid Levels in 3T3-L1 Adipocytes Expressed as a Percent of Isoproterenol Control: Percent of Control Value: 92.2%

H-MRWEEMGYIFYPRKLR-OH [compound 171]
Free Fatty Acid Levels in 3T3-L1 Adipocytes Expressed as a Percent of Isoproterenol Control: Percent of Control Value: 45.9%

Ac-MRWQEMAYIFYPRKLR-NH2 [compound 28]
Free Fatty Acid Levels in 3T3-L1 Adipocytes Expressed as a Percent of Isoproterenol Control: Percent of Control Value: 35.5%

CC[C@H](C)[C@H](NC(=O)[C@H](Cc1ccc(O)cc1)NC(=O)CNC(=O)[C@H](C)NC(=O)[C@H](CCC(=O)O)NC(=O)[C@H](CCC(N)=O)NC(=O)[C@H](Cc1c[nH]c2ccccc12)NC(=O)[C@H](CCCNC(=N)N)NC(=O)[C@@H](C)N)C(=O)N[C@@H](Cc1ccccc1)C(=O)N[C@@H](CCC(=O)O)C(=O)N1CCC[C@H]1C(=O)N[C@@H](CCCNC(=N)N)C(=O)N[C@@H](CCCCN)C(=O)N[C@@H](CC(C)C)C(=O)N[C@@H](C)C(=O)O [compound 242] (HELM PEPTIDE1{[dA].R.W.Q.E.A.G.Y.I.F.E.P.R.K.L.A}$$$$V2.0)
Free Fatty Acid Levels in 3T3-L1 Adipocytes Expressed as a Percent of Isoproterenol Control: Percent of Control Value: 64.9%

Ac-LRWQEMGYIFYPRKLR-NH2 [compound 108]
Free Fatty Acid Levels in 3T3-L1 Adipocytes Expressed as a Percent of Isoproterenol Control: Percent of Control Value: 101.3%

CC[C@H](C)[C@H](NC(=O)[C@H](Cc1ccc(O)cc1)NC(=O)CNC(=O)[C@H](CCSC)NC(=O)[C@H](CCC(=O)O)NC(=O)[C@H](CCC(N)=O)NC(=O)[C@H](Cc1c[nH]c2ccccc12)NC(=O)C(C)(C)NC(=O)[C@@H](N)CCSC)C(=O)N[C@@H](Cc1ccccc1)C(=O)N[C@@H](Cc1ccc(O)cc1)C(=O)N1CCC[C@H]1C(=O)N[C@@H](CCCNC(=N)N)C(=O)N[C@@H](CCCCN)C(=O)N[C@@H](CC(C)C)C(=O)N[C@@H](CCCNC(=N)N)C(=O)O [compound 118] (HELM PEPTIDE1{M.[Aib].W.Q.E.M.G.Y.I.F.Y.P.R.K.L.R}$$$$V2.0)
Free Fatty Acid Levels in 3T3-L1 Adipocytes Expressed as a Percent of Isoproterenol Control: Percent of Control Value: 84.6%

CC[C@H](C)[C@H](NC(=O)[C@H](Cc1ccc(O)cc1)NC(=O)CNC(=O)[C@H](CCSC)NC(=O)[C@H](CCC(=O)O)NC(=O)[C@H](CCC(N)=O)NC(=O)[C@H](Cc1c[nH]c2ccccc12)NC(=O)C(C)(C)NC(=O)[C@H](CCSC)NC(C)=O)C(=O)N[C@@H](Cc1ccccc1)C(=O)N[C@@H](Cc1ccc(O)cc1)C(=O)N1CCC[C@H]1C(=O)N[C@@H](CCCNC(=N)N)C(=O)N[C@@H](CCCCN)C(=O)N[C@@H](CC(C)C)C(=O)N[C@@H](CCCNC(=N)N)C(N)=O [compound 121] (HELM PEPTIDE1{[ac].M.[Aib].W.Q.E.M.G.Y.I.F.Y.P.R.K.L.R.[am]}$$$$V2.0)
Free Fatty Acid Levels in 3T3-L1 Adipocytes Expressed as a Percent of Isoproterenol Control: Percent of Control Value: 89.8%

Ac-MRWQEMGYIFYPRELR-NH2 [compound 195]
Free Fatty Acid Levels in 3T3-L1 Adipocytes Expressed as a Percent of Isoproterenol Control: Percent of Control Value: 58.9%

H-MRWQEMGYIFYPEKLR-OH [compound 179]
Free Fatty Acid Levels in 3T3-L1 Adipocytes Expressed as a Percent of Isoproterenol Control: Percent of Control Value: 47.2%

CC[C@H](C)[C@@H]1NC(=O)[C@H](Cc2ccc(O)cc2)NC(=O)CNC(=O)[C@@H](NC(=O)[C@H](CCC(=O)O)NC(=O)[C@H](CCC(N)=O)NC(=O)[C@H](Cc2c[nH]c3ccccc23)NC(=O)[C@H](CCCNC(=N)N)NC(=O)[C@H](CCSC)NC(C)=O)CSSC[C@@H](C(=O)N[C@@H](CCCNC(=N)N)C(=O)N[C@@H](CCCCN)C(=O)N[C@@H](CC(C)C)C(=O)N[C@@H](CCCNC(=N)N)C(N)=O)NC(=O)[C@H](Cc2ccc(O)cc2)NC(=O)[C@H](Cc2ccccc2)NC1=O [compound 225] (HELM PEPTIDE1{[ac].M.R.W.Q.E.C.G.Y.I.F.Y.C.R.K.L.R.[am]}$PEPTIDE1,PEPTIDE1,7:R3-13:R3$$$V2.0)
Free Fatty Acid Levels in 3T3-L1 Adipocytes Expressed as a Percent of Isoproterenol Control: Percent of Control Value: 97.0%

From patent publication US11753445B2, “Therapeutic peptides” (COHBAR, INC., priority 2016, dated 2023)
